Experimental data: patent publication US11590129B2, “Combination therapy with an antitumor alkaloid” (PHARMA MAR, S.A., priority 2010, dated 2023)

Tests used:
[1] = test system: IGROV-1 human ovarian adenocarcinoma cell line; assay: cells; conditions: Homo sapiens, IGROV-1, 72 h
[2] = test system: U-937 human lymphoma cell line; assay: cells; conditions: Homo sapiens, U-937, 72 h
A2780 tumors = assay: Human ovarian tumor xenografts (A2780) in athymic nude mice, tumor volume % T/C; format: in vivo
Protocol: Female athymic nude mice (Harlan Laboratories Models, S.L. (Barcelona, Spain) were utilized for all experiments. Animals were housed in individually ventilated cages, up to ten per cage in a 12-hour light-dark cycle at 21-23° C. and 40-60% humidity. The mice were allowed free access to irradiated standard rodent diet and sterilized water. Animals were acclimated for at least 5 days prior to tumor implantation with a tumor cell suspension.
The formula to calculate volume for a prolate ellipsoid was used to estimate tumor volume (mm^3) from 2-dimensional tumor measurements: Tumor volume (mm^3)=[L×W^2]÷2, where L is the length and it is the longest diameter in mm, and W is the width and it is the shortest diameter in mm of a tumor. Assuming unit density, volume was converted to weight (i.e., 1 mm^3=1 mg). Tumor volume and animal body weights were measured 2-3 times per week starting form the first day of treatment (Day 0).
PM01183 was provided in the form of vials of lyophilized PM01183 cake which was reconstituted with water for infusion to a concentration of 0.2 mg/mL. The PM01183 stock solution was further diluted in 5% glucose solution for injection to the dosing formulation concentrations. […] Vinorelbine was provided as a solution prepared by diluting the product with 0.9% saline solution.
Dose level groups were administered either as single agents or in combination.
Comparison of the median tumor volume in the treatment groups (T) to the median tumor volume in the control group (T/C×100%) was used for evaluation of the antitumor efficacy.
Day 9 for PM01183 and vinorelbine study) using the median-effect principle (Chou T. C. Pharmacol. Rev.

[3] = test system: SK-MEL-2 human melanoma cell line; assay: cells; conditions: Homo sapiens, SK-MEL-2, 72 h
Procedure, shortened: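 SK-MEL-2 melanoma cells (5,000/well) grown 24 h drug-free, then exposed 72 h to vehicle or test compounds. Viability by MTT reduction (8 h, 37 °C), formazan dissolved in DMSO; results expressed as percentage of control cell growth.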

[4] = PM01183 0.045 mg/kg iv days 0,7, doxorubicin study
[5] = PM01183 0.045 mg/kg iv days 0,7, paclitaxel study
[6] = PM01183 0.045 mg/kg iv days 0,7, vinorelbine study
[7] = PM01183 0.09 mg/kg iv days 0,7, doxorubicin study
[8] = PM01183 0.09 mg/kg iv days 0,7, paclitaxel study
[9] = PM01183 0.09 mg/kg iv days 0,7, vinorelbine study
[10] = PM01183 0.135 mg/kg iv days 0,7, doxorubicin study
[11] = PM01183 0.135 mg/kg iv days 0,7, paclitaxel study
[12] = PM01183 0.135 mg/kg iv days 0,7, vinorelbine study
[13] = PM01183 0.18 mg/kg iv days 0,7, doxorubicin study
[14] = PM01183 0.18 mg/kg iv days 0,7, paclitaxel study
[15] = PM01183 0.18 mg/kg iv days 0,7, vinorelbine study

## COc1ccc2[nH]c3c(c2c1)CCN[C@]31CS[C@@H]2c3c(OC(C)=O)c(C)c4c(c3[C@H](COC1=O)N1[C@@H]2[C@H]2c3c(cc(C)c(OC)c3O)C[C@@H]([C@@H]1O)N2C)OCO4 [PM01183]
[1]
  IC50: 3.2 nM
[2]
  EC50: 1.03 nM
A2780 tumors; [4]
  % T/C on day 0: 100.1%
  % T/C on day 3: 98.2%
  % T/C on day 5: 98.6%
  % T/C on day 7: 97.7%
  % T/C on day 10: 90.0%
A2780 tumors; [5]
  % T/C on day 0: 94.0%
  % T/C on day 3: 91.1%
  % T/C on day 5: 99.6%
  % T/C on day 7: 88.0%
  % T/C on day 10: 73.1%
A2780 tumors; [6]
  % T/C on day 0: 97.8%
  % T/C on day 2: 107.5%
  % T/C on day 5: 93.6%
  % T/C on day 7: 92.5%
  % T/C on day 9: 97.1%
A2780 tumors; [7]
  % T/C on day 0: 100.2%
  % T/C on day 3: 93.3%
  % T/C on day 5: 95.2%
  % T/C on day 7: 93.5%
  % T/C on day 10: 87.7%
A2780 tumors; [8]
  % T/C on day 0: 94.2%
  % T/C on day 3: 88.5%
  % T/C on day 5: 114.1%
  % T/C on day 7: 103.3%
  % T/C on day 10: 88.0%
A2780 tumors; [9]
  % T/C on day 0: 98.0%
  % T/C on day 2: 88.6%
  % T/C on day 5: 61.2%
  % T/C on day 7: 87.6%
  % T/C on day 9: 94.5%
A2780 tumors; [10]
  % T/C on day 0: 102.2%
  % T/C on day 3: 82.4%
  % T/C on day 5: 86.6%
  % T/C on day 7: 89.2%
  % T/C on day 10: 82.4%
A2780 tumors; [11]
  % T/C on day 0: 101.2%
  % T/C on day 3: 89.9%
  % T/C on day 5: 99.8%
  % T/C on day 7: 84.5%
  % T/C on day 10: 61.2%
A2780 tumors; [12]
  % T/C on day 0: 98.3%
  % T/C on day 2: 105.3%
  % T/C on day 5: 77.2%
  % T/C on day 7: 79.1%
  % T/C on day 9: 78.7%
A2780 tumors; [13]
  % T/C on day 0: 100.9%
  % T/C on day 3: 70.2%
  % T/C on day 5: 68.5%
  % T/C on day 7: 69.3%
  % T/C on day 10: 62.1%
A2780 tumors; [14]
  % T/C on day 0: 101.6%
  % T/C on day 3: 68.9%
  % T/C on day 5: 83.1%
  % T/C on day 7: 69.1%
  % T/C on day 10: 52.8%
A2780 tumors; [15]
  % T/C on day 0: 98.9%
  % T/C on day 2: 101.6%
  % T/C on day 5: 72.2%
  % T/C on day 7: 61.3%
  % T/C on day 9: 62.8%
[3]
  IC50: 2 nM
